# According to patent US6914045B2, “Glycopeptide antibiotics” (Wyeth Holdings Corporation, priority 2001, dated 2005):
# Legend:
# Assay in all cases: in vitro antibacterial evaluation, MIC by broth dilution
# Format in all cases: cell-based
# [1] = tested on: Enterococcus sp.; details: broth dilution, 18 hours at 35° C.
# Outline: (§1)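 Read-out: the lowest concentration at which the test strain fails to grow. Serial dilutions (64-0.06 μg/mL) in Muller-Hinton II […], 5×10^5 CFU/mL inoculum, NCCLS M7-A2 procedure.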
# [2] = tested on: Streptococcus sp.; details: broth dilution, 18 hours at 35° C.
# Outline: as §1
# [3] = tested on: Staphylococcus sp.; details: broth dilution, 18 hours at 35° C.; for MIC Staphylococcus aureus (ATCC 29213): strain ATCC 29213; for MIC Staphylococcus aureus (GC 1131): strain GC 1131; for MIC Staphylococcus aureus (GC 3051): strain GC 3051; for MIC Staphylococcus aureus (GC 3053): strain GC 3053; for MIC Staphylococcus aureus (GC 4541): strain GC 4541; for MIC Staphylococcus aureus (GC 4542): strain GC 4542; for MIC Staphylococcus aureus-SMITH (GC 4543): strain GC 4543; for MIC Staphylococcus aureus (GC 4544): strain GC 4544; for MIC Staphylococcus aureus (GC 4545): strain GC 4545; for MIC Staphylococcus haemolyticus (GC 4546): strain GC 4546; for MIC Coagulase Negative Staphylococcus (GC 4547): strain GC 4547; for MIC Coagulase Negative Staphylococcus (GC 4548): strain GC 4548; for MIC Coagulase Negative Staphylococcus (GC 4549): strain GC 4549; for MIC Coagulase Negative Staphylococcus (GC 4551): strain GC 4551
# Outline: as §1
# [4] = tested on: Escherichia coli; details: 18 hours at 35° C.
# [5] = inoculum 5×10^5 CFU/mL, strain ATCC 29212
# [6] = inoculum 5×10^5 CFU/mL, strain GC 2242
# [7] = inoculum 5×10^5 CFU/mL, strain GC 2243
# [8] = inoculum 5×10^5 CFU/mL, strain GC 2691
# [9] = inoculum 5×10^5 CFU/mL, strain GC 3059
# [10] = inoculum 5×10^5 CFU/mL, strain GC 4552
# [11] = inoculum 5×10^5 CFU/mL, strain GC 4553
# [12] = inoculum 5×10^5 CFU/mL, strain GC 4554
# [13] = inoculum 5×10^5 CFU/mL, strain GC 4556
# [14] = inoculum 5×10^5 CFU/mL, strain GC 4557
# [15] = inoculum 5×10^5 CFU/mL, strain GC 4558
# [16] = inoculum 5×10^5 CFU/mL, strain GC 6189
# [17] = inoculum 5×10^5 CFU/mL, strain ATCC 6301
# [18] = inoculum 5×10^5 CFU/mL, strain GC 1894
# [19] = inoculum 5×10^5 CFU/mL, strain GC 4563
# [20] = inoculum 5×10^5 CFU/mL, strain GC 4564
# [21] = inoculum 5×10^5 CFU/mL, strain GC 4565
structure (smiles),measurement,setting,value
CCCCN1CC(C(O)C2NC(=O)C(C(O)C3CNC(=N)N3)NC(=O)C(Cc3ccc(OC4OC(CO)C(OC5OC6COC7(OC6C(O)C5O)C5CC6CC(C5)CC7C6)C(O)C4O)cc3)NC(=O)C(C(C)c3ccccc3)NC(=O)CNC(=O)C(CO)NC2=O)N(C2OC(CO)C(O)C(O)C2O)C1=N (centres unmarked) [Example 224],MIC Enterococcus avium (GC 4558),[1],2 µg/mL
same,MIC Enterococcus faecalis (ATCC 29212),[1],4 µg/mL
same,MIC Enterococcus faecalis (GC 2242),[1],4 µg/mL
same,MIC Enterococcus faecalis (GC 2691),[1],4 µg/mL
same,MIC Enterococcus faecalis (GC 3059),[1],4 µg/mL
same,MIC Enterococcus faecalis (GC 4552),[1],4 µg/mL
same,MIC Enterococcus faecalis (GC 4553),[1],2 µg/mL
same,MIC Enterococcus faecalis (GC 4554),[1],4 µg/mL
same,MIC Enterococcus faecalis (GC 6189),[1],4 µg/mL
same,MIC Enterococcus faecium (GC 2243),[1],2 µg/mL
same,MIC Enterococcus faecium (GC 4556),[1],4 µg/mL
same,MIC Enterococcus faecium (GC 4557),[1],0.5 µg/mL
same,MIC Enterococcus faecalis (ATCC 29212),[1]; [5],4 µg/mL
same,MIC Enterococcus faecalis (GC 2242),[1]; [6],4 µg/mL
same,MIC Enterococcus faecium (GC 2243),[1]; [7],2 µg/mL
same,MIC Enterococcus faecalis (GC 2691),[1]; [8],4 µg/mL
same,MIC Enterococcus faecalis (GC 3059),[1]; [9],4 µg/mL
same,MIC Enterococcus faecalis (GC 4552),[1]; [10],4 µg/mL
same,MIC Enterococcus faecalis (GC 4553),[1]; [11],2 µg/mL
same,MIC Enterococcus faecalis (GC 4554),[1]; [12],4 µg/mL
same,MIC Enterococcus faecium (GC 4556),[1]; [13],4 µg/mL
same,MIC Enterococcus faecium (GC 4557),[1]; [14],0.5 µg/mL
same,MIC Enterococcus avium (GC 4558),[1]; [15],2 µg/mL
same,MIC Enterococcus faecalis (GC 6189),[1]; [16],4 µg/mL
same,MIC Streptococcus agalactiae (GC 4564),[2],<0.12 µg/mL
same,MIC Streptococcus pneumoniae (ATCC 6301),[2],0.25 µg/mL
same,MIC Streptococcus pneumoniae (GC 1894),[2],<0.12 µg/mL
same,MIC Streptococcus pneumoniae (GC 4565),[2],0.25 µg/mL
same,MIC Streptococcus pyogenes (GC 4563),[2],0.25 µg/mL
same,MIC Streptococcus pneumoniae (ATCC 6301),[2]; [17],0.25 µg/mL
same,MIC Streptococcus pneumoniae (GC 1894),[2]; [18],<0.12 µg/mL
same,MIC Streptococcus pyogenes (GC 4563),[2]; [19],0.25 µg/mL
same,MIC Streptococcus agalactiae (GC 4564),[2]; [20],<0.12 µg/mL
same,MIC Streptococcus pneumoniae (GC 4565),[2]; [21],0.25 µg/mL
same,MIC Staphylococcus aureus (ATCC 29213),[3],2 µg/mL
same,MIC Staphylococcus aureus (GC 1131),[3],4 µg/mL
same,MIC Staphylococcus aureus (GC 3051),[3],2 µg/mL
same,MIC Staphylococcus aureus (GC 3053),[3],4 µg/mL
same,MIC Staphylococcus aureus (GC 4541),[3],1 µg/mL
same,MIC Staphylococcus aureus (GC 4542),[3],4 µg/mL
same,MIC Staphylococcus aureus-SMITH (GC 4543),[3],2 µg/mL
same,MIC Staphylococcus aureus (GC 4544),[3],4 µg/mL
same,MIC Staphylococcus aureus (GC 4545),[3],2 µg/mL
same,MIC Staphylococcus haemolyticus (GC 4546),[3],1 µg/mL
same,MIC Coagulase Negative Staphylococcus (GC 4547),[3],2 µg/mL
same,MIC Coagulase Negative Staphylococcus (GC 4548),[3],1 µg/mL
same,MIC Coagulase Negative Staphylococcus (GC 4549),[3],1 µg/mL
same,MIC Coagulase Negative Staphylococcus (GC 4551),[3],2 µg/mL
same,MIC Escherichia coli (ATCC 25922),[4],128 µg/mL
same,MIC Escherichia coli (GC 4559),[4],64 µg/mL
same,MIC Escherichia coli (GC 4560),[4],2 µg/mL
COc1ccc2cc(C3OCC4OC(OC5C(CO)OC(Oc6ccc(CC7NC(=O)C(C(C)c8ccccc8)NC(=O)CNC(=O)C(CO)NC(=O)C(CC8CNC(=N)N8C8OC(CO)C(O)C(O)C8O)NC(=O)C(CC8CNC(=N)N8)NC7=O)cc6)C(O)C5O)C(O)C(O)C4O3)ccc2c1 (centres unmarked) [Example 190],MIC Enterococcus avium (GC 4558),[1],16 µg/mL
same,MIC Enterococcus faecalis (ATCC 29212),[1],32 µg/mL
same,MIC Enterococcus faecalis (GC 2242),[1],32 µg/mL
same,MIC Enterococcus faecalis (GC 2691),[1],32 µg/mL
same,MIC Enterococcus faecalis (GC 3059),[1],32 µg/mL
same,MIC Enterococcus faecalis (GC 4552),[1],32 µg/mL
same,MIC Enterococcus faecalis (GC 4553),[1],32 µg/mL
same,MIC Enterococcus faecalis (GC 4554),[1],32 µg/mL
same,MIC Enterococcus faecalis (GC 6189),[1],32 µg/mL
same,MIC Enterococcus faecium (GC 2243),[1],32 µg/mL
same,MIC Enterococcus faecium (GC 4556),[1],32 µg/mL
same,MIC Enterococcus faecium (GC 4557),[1],8 µg/mL
same,MIC Enterococcus faecalis (ATCC 29212),[1]; [5],32 µg/mL
same,MIC Enterococcus faecalis (GC 2242),[1]; [6],32 µg/mL
same,MIC Enterococcus faecium (GC 2243),[1]; [7],32 µg/mL
same,MIC Enterococcus faecalis (GC 2691),[1]; [8],32 µg/mL
same,MIC Enterococcus faecalis (GC 3059),[1]; [9],32 µg/mL
same,MIC Enterococcus faecalis (GC 4552),[1]; [10],32 µg/mL
same,MIC Enterococcus faecalis (GC 4553),[1]; [11],32 µg/mL
same,MIC Enterococcus faecalis (GC 4554),[1]; [12],32 µg/mL
same,MIC Enterococcus faecium (GC 4556),[1]; [13],32 µg/mL
same,MIC Enterococcus faecium (GC 4557),[1]; [14],8 µg/mL
same,MIC Enterococcus avium (GC 4558),[1]; [15],16 µg/mL
same,MIC Enterococcus faecalis (GC 6189),[1]; [16],32 µg/mL
same,MIC Streptococcus agalactiae (GC 4564),[2],16 µg/mL
same,MIC Streptococcus pneumoniae (ATCC 6301),[2],8 µg/mL
same,MIC Streptococcus pneumoniae (GC 1894),[2],4 µg/mL
same,MIC Streptococcus pneumoniae (GC 4565),[2],8 µg/mL
same,MIC Streptococcus pyogenes (GC 4563),[2],16 µg/mL
same,MIC Streptococcus pneumoniae (ATCC 6301),[2]; [17],8 µg/mL
same,MIC Streptococcus pneumoniae (GC 1894),[2]; [18],4 µg/mL
same,MIC Streptococcus pyogenes (GC 4563),[2]; [19],16 µg/mL
same,MIC Streptococcus agalactiae (GC 4564),[2]; [20],16 µg/mL
same,MIC Streptococcus pneumoniae (GC 4565),[2]; [21],8 µg/mL
same,MIC Staphylococcus aureus (GC 1131),[3]; inoculum 5×10^5 CFU/mL,16 µg/mL
same,MIC Staphylococcus aureus (ATCC 29213),[3],16 µg/mL
same,MIC Staphylococcus aureus (GC 1131),[3],16 µg/mL
same,MIC Staphylococcus aureus (GC 3051),[3],16 µg/mL
same,MIC Staphylococcus aureus (GC 3053),[3],16 µg/mL
same,MIC Staphylococcus aureus (GC 4541),[3],8 µg/mL
same,MIC Staphylococcus aureus (GC 4542),[3],4 µg/mL
same,MIC Staphylococcus aureus-SMITH (GC 4543),[3],4 µg/mL
same,MIC Staphylococcus aureus (GC 4544),[3],16 µg/mL
same,MIC Staphylococcus aureus (GC 4545),[3],16 µg/mL
same,MIC Staphylococcus haemolyticus (GC 4546),[3],8 µg/mL
same,MIC Coagulase Negative Staphylococcus (GC 4547),[3],8 µg/mL
same,MIC Coagulase Negative Staphylococcus (GC 4548),[3],8 µg/mL
same,MIC Coagulase Negative Staphylococcus (GC 4549),[3],8 µg/mL
same,MIC Coagulase Negative Staphylococcus (GC 4551),[3],16 µg/mL
same,MIC Coagulase Negative Staphylococcus (GC 6257),[3]; strain GC 6257,8 µg/mL
same,MIC Escherichia coli (ATCC 25922),[4],>64 µg/mL
same,MIC Escherichia coli (GC 4559),[4],>64 µg/mL
same,MIC Escherichia coli (GC 4560),[4],16 µg/mL
